Experimental data: patent US10227347B2, “Purinyl-N-hydroxyl pyrimidine formamide derivative, preparation methods and uses thereof” (Guizhou Bailing Group Pharmaceutical CO., LTD., priority 2015, dated 2019)

Tests used:
HDAC8 = molecular target: T1, HDAC8 (Homo sapiens, UniProt Q9BY41); experiment: HDAC8 enzyme inhibition (Lys-Ac-AMC); assay type: biochemical; conditions: Table 4, graded
T1 construct: purchased BPS Bioscience 50008
T1 sequence (Q9BY41 1-377): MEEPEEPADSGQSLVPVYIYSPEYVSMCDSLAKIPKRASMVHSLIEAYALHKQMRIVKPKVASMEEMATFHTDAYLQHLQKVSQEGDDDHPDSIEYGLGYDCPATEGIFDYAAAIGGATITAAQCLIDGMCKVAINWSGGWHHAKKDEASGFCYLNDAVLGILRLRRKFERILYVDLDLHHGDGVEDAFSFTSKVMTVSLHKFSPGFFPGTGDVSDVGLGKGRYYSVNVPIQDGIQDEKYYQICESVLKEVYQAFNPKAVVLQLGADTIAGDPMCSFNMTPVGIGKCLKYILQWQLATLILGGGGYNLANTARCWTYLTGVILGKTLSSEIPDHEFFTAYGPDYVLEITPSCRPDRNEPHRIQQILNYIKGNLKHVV
Method: (§1) Determining the inhibition capability of HDAC through the substrate method of fluorophore coupled acetylized peptide fragment (Lys-Ac-AMC). HDAC2-11 proteins of subtypes are purchased from BPS Bioscience Company with the Art. […] The reaction buffer system is a modified Tris buffer (pH7.0). The small molecule compounds are prepared and dissolved with 100% DMSO. […] Adding the compound into the reaction wells of the 384 well plate at the designed concentration, then adding 15 μL HDAC enzyme solution into the reaction wells (adding 15 μL blank buffer into the control well 0) for incubation under ambient temperature for 15 min; then adding 10 μL substrate solution to start reaction.
(§2) Analyzing the result data with the software GraphPad Prism and calculating the value of IC50 as per the formula: Y=background data+(top data−background data)/(1+10^((Log IC50−X)*rate of curve)). Where, Y refers to the inhibition ratio (%) and X refers to the compound concentration.

HDAC10 = molecular target: T2, HDAC10 (Homo sapiens, UniProt Q969S8); experiment: HDAC10 enzyme inhibition (Lys-Ac-AMC); assay type: biochemical; conditions: Table 4, graded
T2 construct: purchased BPS Bioscience 50060
T2 sequence (Q969S8 1-669): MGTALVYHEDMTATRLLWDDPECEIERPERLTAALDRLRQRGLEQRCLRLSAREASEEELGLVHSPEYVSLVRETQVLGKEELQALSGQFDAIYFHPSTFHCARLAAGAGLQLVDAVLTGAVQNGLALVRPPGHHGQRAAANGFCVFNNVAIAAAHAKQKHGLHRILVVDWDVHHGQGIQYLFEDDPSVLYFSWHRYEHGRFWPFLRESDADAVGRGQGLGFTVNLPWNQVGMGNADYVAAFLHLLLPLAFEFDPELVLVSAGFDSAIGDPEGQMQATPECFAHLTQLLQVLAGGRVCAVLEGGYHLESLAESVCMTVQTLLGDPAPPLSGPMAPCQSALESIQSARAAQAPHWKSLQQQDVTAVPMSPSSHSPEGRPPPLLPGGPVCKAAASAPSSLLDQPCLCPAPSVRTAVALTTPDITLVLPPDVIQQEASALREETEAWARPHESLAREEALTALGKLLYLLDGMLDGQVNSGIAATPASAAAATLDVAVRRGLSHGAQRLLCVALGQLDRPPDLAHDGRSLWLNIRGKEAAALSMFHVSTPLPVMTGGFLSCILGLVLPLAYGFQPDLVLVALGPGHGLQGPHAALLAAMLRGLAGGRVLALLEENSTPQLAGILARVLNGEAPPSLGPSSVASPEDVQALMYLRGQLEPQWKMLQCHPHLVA
Method: as §1, §2

[1] = system: MM1S cells (multiple myeloma); experiment: Proliferation inhibition, MM1S (cck-8); assay type: cell-based; conditions: Homo sapiens, MM1.S; 96 h incubation
From the text: Calculating the value of IC50 as per the formula: Y=background data+(top data−background data)/(1+10^((Log IC50−X)*rate of curve)). Where, Y refers to the inhibition ratio (%) and X refers to the compound concentration.

[2] = system: human breast cancer MDA-MB-231 subcutaneous tumor; experiment: Subcutaneous tumor model, human breast cancer MDA-MB-231; conditions: once per 2 days
Method: (§3) Cell MM1S is cultured in RPMI1640 medium (HyClone) which contains 10% fetal calf serum (Hohhot Caoyuan Lvye Bioengineering Material Co., Ltd.) and 100 U/mL penicillin and streptomycin (Beyotime).
(§4) 3) Inoculation, grouping and treatment: collecting cells in logarithmic phase under aseptic conditions and counting; diluting the single cell suspension with the medium containing neither fetal calf serum nor antibiotics to 1×10^7-8 cell/mL for standby. Mixing the cell suspension; injecting 100 μL of cell suspension (5×10^6-2×10^7 cells) subcutaneously with a 1 mL injector on the right side of the back of animals. Weeding out the animals with oversized and undersized tumor when the tumor grows to an average volume of about 120 mm^3 and grouping the qualified animals for treatment and drug administration. Refer to Table 7 for each grouping model and drug administration frequency. Measuring the weight of each model per 2 days and measuring the length and width of the tumor with a vernier caliper; killing the tested animals through cervical dislocation and peeling off their tumors for weight measuring and photographing. Then calculating the tumor inhibition ratio (%) and evaluating the inhibition intensity to tumor with such tumor inhibition ratio.

[3] = system: human breast cancer MCF-7 subcutaneous tumor; experiment: Subcutaneous tumor model, human breast cancer MCF-7; conditions: once per 2 days
[4] = system: human B-cell lymphoma Raji subcutaneous tumor; experiment: Subcutaneous tumor model, human B-cell lymphoma Raji; conditions: once per 2 days, intraperitoneal
[5] = system: human multiple myeloma MM1S subcutaneous tumor; experiment: Subcutaneous tumor model, human multiple myeloma MM1S; conditions: once per 2 days
Method: as §3, §4

COc1ccc(-c2nc(N3CCOCC3)c3nc(CN(C)c4ncc(C(=O)NO)cn4)n(C)c3n2)cc1 [CLJ-29, 2-(((2-(4-methoxyphenyl)-9-methyl-6-morpholine-9H-purine-8-yl))methyl(methyl)amino)-N-hydroxyl pyrimidine-5-formamide]
IC50 (HDAC8): 1 to 100 nM
IC50 (HDAC10): 1 to 100 nM
IC50 [1]: 0.1 to 1 nM

COc1ccc(-c2nc(N3CCOCC3)c3nc(CN(C)c4ncc(C(=O)NO)cn4)n(C)c3n2)cn1 [CLJ-1, 2-(((2-(6-methoxypyridine-3-yl)-9-methyl-6-morpholine-9H-purine-8-yl))methyl(methyl)amino)-N-hydroxyl pyrimidine-5-formamide]
IC50 (HDAC8): 100 to 1000 nM
IC50 (HDAC10): 1 to 100 nM
IC50 [1]: 0.1 to 1 nM

CN(Cc1nc2c(N3CCOCC3)nc(-c3cnc(N)nc3)nc2n1C)c1ncc(C(=O)NO)cn1 [CLJ-11, 2-(((2-(2-aminopyrimidine-5-yl)-9-methyl-6-morpholine-9H-purine-8-yl))methyl(methyl)amino)-N-hydroxyl pyrimidine-5-formamide]
IC50 (HDAC8): 1 to 100 nM
IC50 (HDAC10): 1 to 100 nM
IC50 [1]: 1 to 10 nM

Cc1[nH]c2ccccc2c1CCNCc1ccc(/C=C/C(=O)NO)cc1 [LBH589, panobinostat, reference compound]
Death ([2]; 10 mg/kg, intraperitoneal): 0/6
Inhibitory rate (%) ([2]; 10 mg/kg, intraperitoneal): 77.95%
Death ([3]; 10 mg/kg, intraperitoneal): 0/6
Inhibitory rate (%) ([3]; 10 mg/kg, intraperitoneal): 75.69%
Death ([4]; 10 mg/kg): 0/6
Inhibitory rate (%) ([4]; 10 mg/kg): 54.93%
IC50 [1]: 1 to 10 nM
Death ([5]; 10 mg/kg, intraperitoneal): 0/7
Inhibitory rate (%) ([5]; 10 mg/kg, intraperitoneal): 47.33%

CN(Cc1nc2c(N3CCOCC3)nc(-c3ccc(N)cc3)nc2n1C)c1ncc(C(=O)NO)cn1 [CLJ-44]
IC50 (HDAC8): 1 to 100 nM
IC50 (HDAC10): 1 to 100 nM
Death ([2]; 2.5 mg/kg, intravenous): 0/6
Inhibitory rate (%) ([2]; 2.5 mg/kg, intravenous): 72.1%
Death ([2]; 5 mg/kg, intravenous): 0/6
Inhibitory rate (%) ([2]; 5 mg/kg, intravenous): 83.9%
Death ([2]; 10 mg/kg, intravenous): 0/6
Inhibitory rate (%) ([2]; 10 mg/kg, intravenous): 86.9%
Death ([3]; 2.5 mg/kg, intravenous): 0/6
Inhibitory rate (%) ([3]; 2.5 mg/kg, intravenous): 69.58%
Death ([3]; 5 mg/kg, intravenous): 0/6
Inhibitory rate (%) ([3]; 5 mg/kg, intravenous): 77.58%
Death ([3]; 10 mg/kg, intravenous): 0/6
Inhibitory rate (%) ([3]; 10 mg/kg, intravenous): 82.24%
Death ([4]; 5 mg/kg): 0/6
Inhibitory rate (%) ([4]; 5 mg/kg): 76.96%
Death ([4]; 10 mg/kg): 0/6
Inhibitory rate (%) ([4]; 10 mg/kg): 97.34%
Death ([4]; 20 mg/kg): 0/6
Inhibitory rate (%) ([4]; 20 mg/kg): 99.29%
IC50 [1]: 1 to 10 nM
Death ([5]; 2.5 mg/kg, intravenous): 0/7
Inhibitory rate (%) ([5]; 2.5 mg/kg, intravenous): 45.09%
Death ([5]; 5 mg/kg, intravenous): 0/7
Inhibitory rate (%) ([5]; 5 mg/kg, intravenous): 69.65%
Death ([5]; 10 mg/kg, intravenous): 0/7
Inhibitory rate (%) ([5]; 10 mg/kg, intravenous): 71.94%
